Source: the NIST ThermoML archive (doi:10.1021/je060271a)
Where “and” joins values, the source holds several entries; their conditions need not be identical. Equal values may be shown once.

Settings: 343.15 K, Liquid, Vibrating tube method

CCCCCC(=O)OCC(COC(=O)CCCCC)(COC(=O)CCCCC)COC(=O)CCCCC [pentaerythritol tetrahexanoate]
Settings | mass density
398.2 kPa | 957.4 kg/m3
398.4 kPa | 957.4 kg/m3
399.3 kPa | 957.3 kg/m3
399.8 kPa | 957.5 kg/m3
400.1 kPa | 957.4 kg/m3
400.6 kPa | 957.2 kg/m3
400.8 kPa | 957.4 kg/m3
401.5 kPa | 957.5 kg/m3
402 kPa | 957.5 kg/m3
402.4 kPa | 957.3 kg/m3
402.9 kPa | 957.6 kg/m3
403.4 kPa | 957.4 kg/m3
403.9 kPa | 957.4 kg/m3
404.3 kPa | 957.5 kg/m3
404.8 kPa | 957.4 kg/m3
407.4 kPa | 957.3 kg/m3
407.9 kPa | 957.4 kg/m3
408.6 kPa | 957.4 kg/m3
409 kPa | 957.3 kg/m3
409.2 kPa | 957.4 kg/m3
409.9 kPa | 957.3 kg/m3
410.4 kPa | 957.3 kg/m3
413 kPa | 957.4 kg/m3
413.5 kPa | 957.5 kg/m3
413.9 kPa | 957.4 kg/m3
414.4 kPa | 957.4 kg/m3
414.9 kPa | 957.3 kg/m3
415.1 kPa | 957.5 kg/m3
418 kPa | 957.4 kg/m3
418.5 kPa | 957.5 kg/m3
419.6 kPa | 957.4 kg/m3
419.8 kPa | 957.4 kg/m3
420.3 kPa | 957.3 kg/m3
421.3 kPa | 957.3 kg/m3
421.5 kPa | 957.3 kg/m3
423.4 kPa | 957.3 kg/m3
423.9 kPa | 957.3 kg/m3
424.1 kPa | 957.4 kg/m3
425.1 kPa | 957.3 kg/m3
425.5 kPa | 957.4 kg/m3
425.7 kPa | 957.4 kg/m3
426.2 kPa | 957.4 kg/m3
426.7 kPa | 957.3 kg/m3
427.2 kPa | 957.3 kg/m3
427.9 kPa | 957.5 kg/m3
428.4 kPa | 957.4 kg/m3
429 kPa | 957.5 kg/m3
429.5 kPa | 957.4 kg/m3
429.8 kPa | 957.5 kg/m3
430.4 kPa | 957.5 kg/m3
430.9 kPa | 957.4 kg/m3
431.6 kPa | 957.4 kg/m3 and 957.5 kg/m3
431.9 kPa | 957.5 kg/m3
432.6 kPa | 957.4 kg/m3
432.8 kPa | 957.5 kg/m3
433 kPa | 957.3 kg/m3
435 kPa | 957.5 kg/m3
437.5 kPa | 957.5 kg/m3
440.8 kPa | 957.4 kg/m3
443.6 kPa | 957.3 kg/m3
446.3 kPa | 957.4 kg/m3
449.5 kPa | 957.5 kg/m3
452.2 kPa | 957.5 kg/m3
455.6 kPa | 957.4 kg/m3
458.5 kPa | 957.4 kg/m3
461.8 kPa | 957.4 kg/m3
464.6 kPa | 957.3 kg/m3
468.2 kPa | 957.4 kg/m3
471.5 kPa | 957.4 kg/m3
474.8 kPa | 957.4 kg/m3
477.4 kPa | 957.5 kg/m3
481.3 kPa | 957.6 kg/m3
